These results are taken from patent US20070155730A1, “Benzodiazepine And Benzopiperazine Analog Inhibitors Of Histone Deacetylase” (METHYLGENE, INC., priority 2005, published 2007).

In this assay the target is histone deacetylase (HDAC). Nature of the assay: Inhibition of Histone Deacetylase Enzymatic Activity. Format: biochemical. Conditions: substrate Boc-Lys(Ac)-AMC, Fluor-de-Lys developer, 37° C., 20 min; against one or more of HDAC-1 to HDAC-11, SirT1 to SirT7 (isoform not given); read-out: HDAC Inhibitory Activity (IC50). As for the experimental part:
The following protocol is used to assay the compounds of the invention. In the assay, the buffer used is 25 mM HEPES, pH 8.0, 137 mM NaCl, 2.7 mM KCl, 1 mM MgCl2 and the substrate is Boc-Lys(Ac)-AMC in a 50 mM stock solution in DMSO. The enzyme stock solution is 4.08 μg/mL in buffer.
The compounds are pre-incubated (2 μl in DMSO diluted to 13 μl in buffer for transfer to assay plate) with enzyme (20 μl of 4.08 μg/mL) for 10 min at room temperature (35 μl pre-incubation volume). The mixture is pre-incubated for 5 min at room temperature. The reaction is started by bringing the temperature to 37° C. and adding 16 μl substrate. Total reaction volume is 50 μl. […] A plate is incubated in the dark for 10 min at room temperature before reading (λEX=360 nm, λEm=470 nm, Cutoff filter at 435 nm).
In the table, “A” indicates inhibitory activity at a concentration of <0.05 μM; “B” indicates inhibitory activity at a concentration >0.05 μM but <0.5 μM, “C” indicates inhibitory activity at >0.5 μM but <2 μM and “D” indicates inhibitory activity at a concentration of >2 μM but <10 μM.
On to `COc1ccc(CN2c3ccccc3NC(=O)C2CCCCCC(=O)Nc2ccccc2N)cc1` (stereo not shown) [Compound 47b, 6-(1-(4-methoxybenzyl)-1,2,3,4-tetrahydro-3-oxoquinoxalin-2-yl)-N-(2-aminophenyl)hexanamide], for which the IC50 was in the range of 2 to 10 µM.
For `CC(C)[C@@H]1Nc2ccc(NC(=O)CCCCCCC(=O)NO)cc2NC1=O` [Compound 24a, N1—((S)-1,2,3,4-Tetrahydro-2-isopropyl-3-oxoquinoxalin-6-yl)-N8-hydroxyoctanediamide] the value was 0.05 to 0.5 µM; for `O=C(NO)c1ccc2c(c1)NC(=O)[C@H](Cc1ccccc1)N2` [Compound 4i, (S)-2-Benzyl-1,2,3,4-tetrahydro-N-hydroxy-3-oxoquinoxaline-6-carboxamide], 2 to 10 µM.
For `COc1ccc(CN2c3ccccc3NC(=O)C2CCCCCC(=O)Nc2cc(-c3cccs3)ccc2N)cc1` (stereo not shown) [Compound 49, 6-(1-(4-methoxybenzyl)-1,2,3,4-tetrahydro-3-oxoquinoxalin-2-yl)-N-(2-amino-5-(thiophen-2-yl)phenyl)hexanamide] the value was 0.05 to 0.5 µM; for `O=C(NO)c1ccc(CN2c3ccccc3NC(=O)[C@@H]2Cc2cccs2)cc1` [Compound 54a1, 4-(((S)-2,3-Dihydro-2-oxo-3-((thiophen-2-yl)methyl)quinoxalin-4(1H)-yl)methyl)-N-hydroxybenzamide], 0.05 to 0.5 µM.
For `O=C(NO)c1ccc(NC(=O)N2c3ccccc3NC(=O)[C@H]2Cc2ccc(F)c(F)c2)cc1` [Compound 116, (R)-2-(3,4-Difluorobenzyl)-N-(4-(hydroxycarbamoyl)phenyl)-3-oxo-3,4-dihydroquinoxaline-1(2H)-carboxamide] the value was < 0.05 µM; for `CC(C)[C@@H]1Nc2ccc(NC(=O)CCCCCCC(=O)Nc3ccccc3N)cc2NC1=O` [Compound 23a, N1-(2-Aminophenyl)-N8—((S)-1,2,3,4-tetrahydro-2-isopropyl-3-oxoquinoxalin-6-yl)octanediamide], 2 to 10 µM; for `CC(C)(C)Oc1ccc(C[C@@H]2C(=O)Nc3ccccc3N2Cc2ccc(C(=O)NO)cc2)cc1` [Compound 54b11, (R)-4-((2-(4-tert-butoxybenzyl)-3-oxo-3,4-dihydroquinoxalin-1(2H)-yl)methyl)-N-hydroxybenzamide], < 0.05 µM.
Consider `O=C(NO)c1ccc2c(c1)NC(=O)[C@H](Cc1cn(C(c3ccccc3)(c3ccccc3)c3ccccc3)cn1)N2` [Compound 4g, (S)-1,2,3,4-tetrahydro-N-hydroxy-3-oxo-2-((1-trityl-1H-imidazol-4-yl)methyl)quinoxaline-6-carboxamide], for which the IC50 is 2 to 10 µM.
For `O=C(CCO[C@@H]1C[C@@H](C(=O)Nc2cccc3cccnc23)N(C(=O)OCc2ccccc2)C1)NO` [Compound 112a, (2S,4R)-benzyl 4-(3-(hydroxyamino)-3-oxopropoxy)-2-(quinolin-8-ylcarbamoyl)pyrrolidine-1-carboxylate] the value was 0.5 to 2 µM; for `O=C(NO)c1ccc(CN2c3ccccc3NC(=O)[C@H]2CCc2ccccc2)cc1` [Compound 54b7, (R)—N-hydroxy-4-((3-oxo-2-phenethyl-3,4-dihydroquinoxalin-1(2H)-yl)methyl)benzamide], < 0.05 µM; for `O=C(NO)c1ccc2c(c1)NC(=O)[C@@H](Cc1c[nH]c3ccccc13)NC2=O` [Compound 97d, (R)-3-((1H-Indol-3-yl)methyl)-N-hydroxy-2,5-dioxo-2,3,4,5-tetrahydro-1H-benzo[e][1,4]diazepine-8-carboxamide], 0.5 to 2 µM.
For `Nc1ccc(-c2cccs2)cc1NC(=O)c1ccc(-c2ccc3c(c2)NC(=O)[C@H](Cc2c[nH]c4ccccc24)N3)cc1` [Compound 62, 4-((S)-2-((1H-indol-3-yl)methyl)-1,2,3,4-tetrahydro-3-oxoquinoxalin-6-yl)-N-(2-amino-5-(thiophen-2-yl)phenyl)benzamide] the value was 0.05 to 0.5 µM; for `O=C(NO)c1ccc2c(c1)NC(=O)[C@H](c1ccccc1)NC2=O` [Compound 97i, (S)-N-Hydroxy-2,5-dioxo-3-phenyl-2,3,4,5-tetrahydro-1H-benzo[e][1,4]diazepine-8-carboxamide], 2 to 10 µM; for `O=C(NO)c1ccc(CN2c3ccccc3NC(=O)[C@@H]2Cc2c[nH]c3ccccc23)cc1` [Compound 54b3, (S)-4-((2-((1H-indol-3-yl)methyl)-3-oxo-3,4-dihydroquinoxalin-1(2H)-yl)methyl)-N-hydroxybenzamide], < 0.05 µM.
Consider `O=C(NO)c1ccc(CN2c3ccccc3NC(=O)[C@H]2Cc2cccs2)cc1` [Compound 56a, 4-(((R)-2,3-Dihydro-2-oxo-3-((thiophen-2-yl)methyl)quinoxalin-4(1H)-yl)methyl)-N-hydroxybenzamide], for which the 50% inhibitory concentration (IC50) is 0.5 to 2 µM.
Consider `O=C(NO)c1ccc(CN2C(=O)CNC(=O)[C@H]2Cc2c[nH]c3ccccc23)cc1` [Compound 136a, (R)-4-((2-((1H-Indol-3-yl)methyl)-3,6-dioxopiperazin-1-yl)methyl)-N-hydroxybenzamide], for which the IC50 is < 0.05 µM.
For `CC(C)[C@H]1C(=O)Nc2cc(C(=O)NO)ccc2N1S(=O)(=O)c1ccc(-c2ccccc2)cc1` [Compound 18b, (S)—N-hydroxy-1-(biphenyl-4-sulfonyl)-2-isopropyl-3-oxo-1,2,3,4-tetrahydroquinoxaline-6-carboxamide] the value was 0.5 to 2 µM.
For `COc1cc(CN2C(=O)C(CCCCCC(=O)NO)NC(=O)c3ccccc32)cc(OC)c1` (stereo not shown) [Compound 81, 6-(1-(3,5-Dimethoxybenzyl)-2,3,4,5-tetrahydro-2,5-dioxo-1H-benzo[e][1,4]diazepin-3-yl)-N-hydroxyhexanamide] the value was 0.5 to 2 µM; for `COc1ccc(CN2c3ccc(C(=O)NO)cc3NC(=O)[C@@H]2C(C)C)cc1` [Compound 8, (S)-1-(4-Methoxybenzyl)-1,2,3,4-tetrahydro-N-hydroxy-2-isopropyl-3oxoquinoxaline-6-carboxamide], 0.5 to 2 µM; for `CC(C)C[C@@H]1NC(=O)c2ccccc2N(CCCCCC(=O)NO)C1=O` [Compound 68b1, 6-((S)-2,3,4,5-tetrahydro-3-isobutyl-2,5-dioxobenzo[e][1,4]diazepin-1-yl)-N-hydroxyhexanamide], 0.5 to 2 µM.
For `O=C(CCCCCC1NC(=O)c2ccccc2N(CCc2c[nH]c3ccccc23)C1=O)NO` (stereo not shown) [Compound 79, 6-(1-(2-(1H-Indol-3-yl)ethyl)-2,3,4,5-tetrahydro-2,5-dioxo-1H-benzo[e][1,4]diazepin-3-yl)-N-hydroxyhexanamide] the value was 0.05 to 0.5 µM; for `CC(C)[C@@H]1Nc2ccc(C(=O)NCCCCCC(=O)NO)cc2NC1=O` [Compound 13, (S)—N-(5-(Hydroxycarbamoyl)pentyl)-1,2,3,4-tetrahydro-2-isopropyl-3-oxoquinoxaline-6-carboxamide], 0.05 to 0.5 µM.
For `CC(C)[C@H]1C(=O)Nc2cc(C(=O)NO)ccc2N1Cc1ccc(C(=O)O)cc1` [Compound 16d, 4-(((S)-7-(hydroxycarbamoyl)-2,3-dihydro-3-isopropyl-2-oxoquinoxalin-4(1H)-yl)methyl)benzoic acid], the IC50 lay in the range of 2 to 10 µM.
As for `O=C(CCCCCC1NC(=O)c2ccccc2N(Cc2ccccc2)C1=O)NO` (stereo not shown) [Compound 80, 6-(1-Benzyl-2,3,4,5-tetrahydro-2,5-dioxo-1H-benzo[e][1,4]diazepin-3-yl)-N-hydroxyhexanamide], the IC50 lay in the range of 0.05 to 0.5 µM.
